Reference: patent US8497075B2, “Methods of identifying a modulator that inhibits the binding between Epstein-Barr virus induced receptor 2 and cholesterol derived ligands” (Novartis AG, priority 2008, dated 2013)
Where two headings read alike, the source gives them in different places.

Assays:
Set-up in all cases: expressed in transfected cells; host or cells: CHO-K1 expressing apoaequorin (CHO-Aeq) with Gqi5; line E2
[1] = target: T1, hEBI2 (Homo sapiens, UniProt P32249); experiment: GTPγS assay on EBI2 membranes; format: biochemical
Procedure: (§1) The cell suspension was then homogenized using a Dounce homogenizer (10 strokes) with a driller. After centrifugation at 110000×g for 45 minutes and removal of the supernatant, pellets were resuspended in sucrose buffer (50 mM Tris pH7.2, 250 mM sucrose, 10% glycerol) by vortexing. The suspension was again homogenize using a Dounce homogenizer (10 strokes) and spun at 100000×g for 45 minutes. The supernatant was discarded, the pellet resuspended in sucrose buffer, protein concentration determined, aliquoted and frozen at −80° C. These membrane preparations were used in binding as well as GTPgS assays.
Ten micrograms of EBI2 membranes are dissolved in 40 μl of buffer A (20 mM Hepes pH 7.4, 100 mM NaCl, 1.5 mM MgCl2, Saponin 10 μg/ml) supplemented with 10 μM GDP. After addition of […] scintilation proximity assay (SPA) beads (100 μg/well, Amersham, RPNQ0001) components are gently mixed and incubated at RT for 15 minutes. Twenty microliters of compound diluted in buffer A and 20 μl of GTPγ^35S (Perkin Elmer NEG030X) is added before incubation for one hour at RT. Plates are transferred and counted in a TopCount (Perkin Elmer NXT HTS™) and counts are analysed plotted and to determine half maximal concentrations of activation using standard software (Prism™, GraphPad Software Inc.).

[2] = target: T1, hEBI2; experiment: [3H] 7a,25DHC radio-ligand binding assay (SPA), IC50 determination
Procedure: as §1
Lyophilized wheat germ agglutinin scintilation proximity assay (SPA) beads (RPNQ0001) were purchased from GE Healthcare (Buckinghamshire, UK). One vial (500 mg) is reconstituted by adding 5 mL of distilled water to give a final concentration of 100 mg/mL. Reconstituted SPA beads must be stored at 4° C., but must not be frozen. [3H]-7a,25-OHC, was synthesized by reduction of the 7-keto, 25DHC in the presence of 3H-L-selectride.
The SPA assay was performed in a final volume of 50 μl per well in a 384-well polystyrene Opti plate. The components were added into the wells as follows: • 10 μl tested compounds in 50 mM Tris; 100 mM NaCl; 5 mM MgCl2 and 0.1% Cyclodextrine.
Total binding was determined by the addition of 10 μl of 50 mM Tris; 100 mM NaCl; 5 mM MgCl2 and 0.1% Cyclodextrine and non-specific binding was determined by the addition of 10 μl NVP-BYX998-NX-4 (final concentration of 10 μM). • 20 μL of 10 nM final [3H]-BYX998 in assay buffer (50 mM Tris-HCl, 100 mM NaCl, 5 mM MgCl2 and 0.1% Cyclodextrine). • 20 μL of a mixed bead and membrane suspension in assay buffer, in order to get a final concentration of 20 μg membranes/well and 200 μg beads/well.
The plates were sealed and shaken at room temperature for 10 minutes then allowed to stand at room temperature for at least 12 hours. The plates were counted using a Perkin Elmer TopCount reader, each well being counted for 1 minute.
Each IC50 determination was performed with 11 concentrations.
A standard data reduction algorithm was used to calculate the percentage of specific binding in the presence of test compound as follows: ((B−NSB)/(Total−NSB))·100, where B=Binding in the presence of test compound (in cpm) NSB=Non-specific binding in the presence of excess inhibitor (in cpm) Total=Binding in the absence of test compound (in cpm) Curve fitting of the normalized concentration response curves using a four parameter logistic fit is then performed using XLfit (v.2 or v.4, IDBS, Guildford, UK). The equation used is XLfit equation no. […] By default, min is fixed at 0, whereas max is not fixed.

[3] = target: T1, hEBI2; experiment: calcium fluorescence (FLIPR); format: cell-based
Procedure: If not stated otherwise compounds were dissolved at 10 mM in DMSO or ethanol (cholesterol, 25MDC). Serial dilutions were carried out in 90% DMSO (FLIPR, GTPgS) or assay buffer (binding assay). For cell based assays final DMSO concentrations is kept below 1%.
If not stated otherwise, the same Chinese hamster ovary (CHO) cell line called E2 which was used for the ligand identification was used in these experiments. This cell line is expressing (1) the recombinant human EBI2 receptor, (2) the promiscuous Gqi5 protein as well as (3) apo-aequorin.
Cells were seeded in black/clear bottom, poly-D-Lysine coated 384-well plates at a cell density of 10,000 cells/25 μL/well, using culture medium. Cells were cultured for 24 hours at 37° C./5% CO2. Culture medium was removed and for cell loading, 20 μl per well of loading buffer (Calcium-4 no wash dye) were distributed into the wells and the plates were incubated for 60 min at 37° C. in 5% CO2. With the FLIPR pipettor, 10 μl of the different compounds were added to the cells and the subsequent fluorescent changes monitored for 3 minutes. Using the FLIPR software tool, 2 values of fluorescence calcium responses were exported: Fmax, the fluorescence at the peak and Fbasal corresponding to the value prior to compound injection. From these two values, the calcium response is normalized with respect to the calcium baseline values using dF/F=(Fmax−Fbasal)/Fbasal. The maximum dF/F is called Emax.

[4] = 10 nM radioligand, n = 3, read-out: [^3H] 7a,25DHC Binding IC50

T1 sequence (P32249 whole entry): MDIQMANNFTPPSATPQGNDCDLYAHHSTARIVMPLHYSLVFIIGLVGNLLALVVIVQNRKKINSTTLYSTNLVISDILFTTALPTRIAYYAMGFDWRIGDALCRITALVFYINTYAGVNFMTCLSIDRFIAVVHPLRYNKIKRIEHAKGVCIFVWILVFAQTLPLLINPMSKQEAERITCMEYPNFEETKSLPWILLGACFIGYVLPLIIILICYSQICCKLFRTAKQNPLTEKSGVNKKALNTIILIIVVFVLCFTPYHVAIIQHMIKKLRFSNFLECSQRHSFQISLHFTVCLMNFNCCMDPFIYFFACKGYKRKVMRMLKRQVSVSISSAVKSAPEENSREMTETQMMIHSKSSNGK

Structure (SMILES): C[C@H](CCCC(C)(C)O)[C@H]1CC[C@H]2[C@@H]3[C@H](O)C=C4C[C@@H](O)CC[C@]4(C)[C@H]3CC[C@]12C [7a,25DHC, cholest-5-ene-3b,7a,25-triol]
- EC50 [1]: 7.5 nM
- IC50 [2, 4]: 70.4 nM
- EC50 [3]: 1.9 nM

Structure (SMILES): CC(CO)CCC[C@@H](C)[C@H]1CC[C@H]2[C@@H]3[C@H](O)C=C4C[C@@H](O)CC[C@]4(C)[C@H]3CC[C@]12C (stereo partly drawn) [7a,27DHC, cholest-5-ene-3b,7a,27-triol]
- EC50 [1]: 5.1 nM
- IC50 [2]: 362 nM
- EC50 [3]: 4.8 nM

Structure (SMILES): C[C@H](CCCC(C)(C)O)[C@H]1CC[C@H]2[C@@H]3[C@@H](O)C=C4C[C@@H](O)CC[C@]4(C)[C@H]3CC[C@]12C [7b,25DHC, cholest-5-ene-3b,7b,25-triol]
- EC50 ([1]; n = 3-4, read-out: GTPgS EC50): 221 nM
- IC50 [2, 4]: 2630 nM
- EC50 ([3]; n = 3-4, read-out: FLIPR EC50): 121 nM
